Measured values as given in patent publication US20080226596A1, “Therapeutic compositions and methods useful in treating hepatitis” (priority 2006, published 2008).

Tests used:
Assay type in all cases: biochemical
[1] = biological target: T1, PRL-2 (Homo sapiens, UniProt Q12974); test: In vitro PTPase assay, recombinant PRL-2
T1 construct: GST (N); made in house; host or cells: DHSa (DH5a) bacteria
Source text: (§1) Sodium stibogluconate, suramin, sodium orthovanadate and GST fusion protein of SHP-1 have been described previously (Pathak et al., J. Imumol. 167, 3391 (2001)). Meglumine antimonate was obtained from Aventis. cDNAs of human PRL-1, PRL-2 and PRL-3 coding region were derived by RT-PCR from H9 cells (Safai, et al., Lancet 1, 1438 (1984)) and inserted in frame into the pGEX vector. cDNA of PRL-1R86 was generated by recombinant DNA technique using PRL-1 cDNA as template following established procedures (Jiao, et al., Mol. Cell. Biol. 16, 6985 (1996)). […]
(§2) In vitro PTPase assays were used to determine the effects of compounds on recombinant PTPases, following established procedures using a synthetic phosphotyrosine peptide or DiFMUP as the substrate (Pathak et al., J. Imumol. 167, 3391 (2001)). […] PTPase activity of individual reactions was measured by adding 100 µL of malachite green solution (UBI) and then quantifying the amounts of free phosphate cleaved by the PTPase from the peptide substrate by spectrometry (OD660 nm). […] Relative PTPase activities were calculated based on the formula: (PTPase activity in the presence of an inhibitory compound/PTPase activity in the absence of the compound)× 100%. […]

[2] = tested on: GSTm8; test: In vitro PTPase assay, GSTm8; conditions: 3-4 μg/ml or 10-100 μg/ml
Source text: (§3) In vitro PTPase assays were used to determine the effects of levamisole (Sigma), pentamidine (American Pharmaceutical Partners, Inc.), and ketoconazole (Sigma) on recombinant PTPases, following established procedures (Pathak et al., J. Imumol. 167, 3391 (2001); Pathak et al., Leukemia 16, 2285 (2002), Yi et al., J. Immunol. 169, 5978 (2002)) using a synthetic phosphotyrosine peptide or DiFMUP as the substrate as detailed above in section I.A.2.

[3] = biological target: T2, PRL-1 (Homo sapiens, UniProt Q93096); test: In vitro PTPase assay, recombinant PRL-1; conditions: 0.1-100 μg/ml
T2 construct: GST (N); made in house; host or cells: DHSa (DH5a) bacteria
T2 sequence (Q93096 whole entry): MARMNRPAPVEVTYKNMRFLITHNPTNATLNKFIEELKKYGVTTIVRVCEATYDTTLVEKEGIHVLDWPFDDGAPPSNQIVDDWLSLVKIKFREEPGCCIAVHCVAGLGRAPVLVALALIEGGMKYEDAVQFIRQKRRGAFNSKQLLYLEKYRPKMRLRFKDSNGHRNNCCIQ
Source text: as §1, §2

[4] = biological target: T3, MKP1 (Homo sapiens, UniProt P28562); test: In vitro PTPase assay, GST/MKP1
T3 construct: GST (N); made in house; host or cells: DH5a bacteria
T3 sequence (P28562 1-367): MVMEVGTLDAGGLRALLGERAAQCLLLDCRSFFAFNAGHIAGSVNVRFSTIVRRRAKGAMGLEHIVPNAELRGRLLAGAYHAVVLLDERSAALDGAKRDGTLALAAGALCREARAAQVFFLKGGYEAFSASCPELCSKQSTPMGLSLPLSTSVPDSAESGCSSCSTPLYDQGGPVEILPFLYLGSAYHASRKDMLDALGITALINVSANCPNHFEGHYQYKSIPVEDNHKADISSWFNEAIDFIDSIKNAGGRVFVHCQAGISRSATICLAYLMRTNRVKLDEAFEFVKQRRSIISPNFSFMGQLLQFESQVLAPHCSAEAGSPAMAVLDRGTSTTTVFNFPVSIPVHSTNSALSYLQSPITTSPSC
Experimental: In vitro PTPase activities were measured using the commercial protein tyrosine phosphatase assay kit (Upstate Biotechnology, Inc. (“UBI”)) following established procedure known to one of skill in the art. This assay measures the in vitro dephosphorylation of a synthetic phosphotyrosine peptide of the sequence Arg-Arg-Leu-Ile-Glu-Asp-Ala-Gle-Tyr-Ala-Ala-Arg-Gly, wherein the tyrosine is phosphorylated (SEQ ID NO: 3). Briefly, 0.01 µg of GST/PTPase fusion proteins was incubated in 50 μL of Tris buffer (10 mM Tris, pH 7.4) containing different concentrations of inhibitors or chemicals (0-1,000 μg/ml) at 22° C. for 10 minutes, followed by addition of 0.2 mM of the phosphotyrosine peptide and incubation at 22° C. for 18 hours. 100 μL of Malachite Green solution was added and incubated for 5 minutes, and the absorbance at 660 nm was measured after 5 minutes.
as §3

T1 sequence (Q12974 whole entry): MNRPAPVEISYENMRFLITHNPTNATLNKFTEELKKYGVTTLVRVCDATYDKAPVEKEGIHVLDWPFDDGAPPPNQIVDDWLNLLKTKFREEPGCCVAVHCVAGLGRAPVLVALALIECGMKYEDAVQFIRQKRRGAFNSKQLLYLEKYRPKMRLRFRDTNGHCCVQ

Compound | effect against PRL-2 [1] | inhibitory activity against GSTm8 [2] | PRL-1 PTPase activity retained [3] | inhibition of MKP1 [4] | inhibitory activity against MKP1 [4]
N=C(N)c1ccc(OCCCCCOc2ccc(C(=N)N)cc2)cc1 [pentamidine] | not effective | no obvious inhibitory activity | 70-80% | substantial inhibition | –
O.O.O.O.O.O.O.O.O.O=C([O-])[C@@H]1[O][Sb]2([O-])([O][Sb]34([OH])[O][C@H]([C@H](O)CO)[C@H]([O]3)[C@H](C(=O)[O-])[O]4)[O][C@H]([C@H](O)CO)[C@@H]1[O]2.[Na+].[Na+].[Na+] [sodium stibogluconate] | – | – | – | no obvious effects | no obvious inhibitory activity
CC(=O)N1CCN(c2ccc(OCC3COC(Cn4ccnc4)(c4ccc(Cl)cc4Cl)O3)cc2)CC1 (stereo not shown) [ketoconazole] | not effective | no obvious inhibitory activity | 60-70% | substantial inhibition | –
